Test results from patent publication US9403841B2, “Phragamalin limonoids for the treatment of sexual dysfunction” (DICOTYLEDON AB, priority 2012, dated 2016).

How the values were obtained:
male mice [1] = conditions: see WO 2008/145996; cited from earlier work
male mice [2] = experiment: Sexual behavior test: number of mounts of male mice on sexually receptive female mice during one hour; format: in vivo
Excerpt: A “sexually enhancing effect” is defined herein as the effect being observable as an at least 50% increase, more preferably at least 75% increase, in the number of mounts of sexually naive male mice onto sexually receptive female mice (both preferably being of 8 to 10 weeks of age), after a compound has been administered (orally or sub-cutaneously) to the male mice, the male mice are thereafter, each one separately, being introduced to a sexually receptive female mouse; the observed number of mounts being compared with the number of mounts for control male mice (i.e. control mice being male mice of the same age and strain as the treated ones, but which were not administered the compound but otherwise handled in the same way as the treated mice). The observation period shall be 1 h. It is further required that the number of male mice in each one of the treated and non-treated groups amount to at least three, more preferably to at least four, even more preferably to at least five, and most preferably to at least six in each group for the test to be valid; the average number of mounts for the non treated (average_mount_control) and treated (average_mount_treated) during the 1 h observation period are then calculated and the percent increase (Effect) is then being computed as:
Mice of 9 weeks age weighing 30±2 g were used throughout the study. They were all sexually unskilled. At 4 weeks of age they had been separated from their parents and males and females had been placed in separated cages. The mice were fed with pellets enriched with proteins and lipids.
Prior to the tests, male and female mice received specific treatments, as follows: […]
At 3.00 pm, a female mouse was introduced into each cage hosting a male mouse. The number of mounts of the male mouse, defined as a tentative of lateral or dorsal mounting on the female mouse with or without penis intromission, was then counted during a one-hour observation period and used as a simple measure of sexual behavior activity.

## COC(=O)CC1C2(C)CC34OC5(C)OC67C(CC(=O)OC6C3(OC(=O)C(C)C)C2OC(=O)C(C)C)C(C)(C(=O)c2ccoc2)CCC7(O5)C14C (stereo not shown) [Compound R306]
Male mice [1]
  potency to induce a sexual enhancing effect (comparison): more potent than R310

## COC(=O)CC1C2(C)CC34OC5(C)OC67C(CC(=O)OC6C3(O)C2OC(C)=O)C(C)(C(OC(=O)C(F)(F)F)c2ccoc2)CCC7(O5)C14C (stereo not shown) [GL-1203]
Male mice [2]; subcutaneous in olive oil for three consecutive days, doses tested 0.04, 0.4, 4 mg/kg
  dose at which a clear and significant increase in the mounting frequency was seen (only at this dose): 4 mg/kg

## COC(=O)CC1C2(C)CC34OC5(C)OC67C(CC(=O)OC6C3(O)C2OC(=O)C(C)C)C(C)(C(=O)c2ccoc2)CCC7(O5)C14C (stereo not shown) [SAE5]
Male mice [2]; oral in olive oil for three consecutive days, doses tested 0.004-4 mg/kg
  dose at which clear and significant increases in number of mounts were seen already: 0.04 mg/kg
Male mice [2]; oral, 4 mg/kg for three consecutive days, D-4
  maximum number of mounts over the one hour observation period (average): 37 mounts
